# Results reported in patent publication US6048854A, “2,3-diaminopropionic acid derivative” (Sumitomo Pharmaceuticals Company, Limited, priority 1993, dated 2000).
# pIC50: −log10 of the molar value.
# System: platelet aggregation
# Assay: Platelet aggregation inhibitory activity (ADP-induced, human platelet rich plasma)
# Type: cell-based
# Conditions: Homo sapiens, Table 2, same manner as Example 17
# Experimental: The blood was collected from the elbow vein of a normal volunteer with mixing thereof with 1/10 volume of 3.8% sodium citrate, and the blood was centrifuged at 1000 rpm (150 g) for 10 minutes to give the supernatant as platelet rich plasma (PRP). To PRP (200 μl) was added a test compound solution (2 μl), and the mixture was incubated with stirring at 1000 rpm at 37° C. for two minutes, and thereto was added a platelet aggregator, adenosine diphosphate (ADP, 22 μl) at a final concentration of 3 μg/ml. The platelet aggregation activity was determined by nephelometric analysis using a Hematracer (manufactured by Niko Bioscience, Ltd.). The test results of platelet aggregation inhibitory activity are expressed by IC50, which is a concentration of the test compound being required to inhibit the platelet aggregation reaction by 50%.
# The compounds of Examples 18 to 70 were tested in the same manner as in Example 17.
# The compounds of Examples 72 to 116 were tested in the same manner as in Example 17.
row,pIC50,SMILES
1,7.05,"CCCCS(=O)(=O)N[C@@H](CNC(=O)CCCOc1ccc(C(=N)N)cc1)C(=O)O [Example 56, (2S)-3-(4-(4-amidinophenoxy)butanoylamino)-2-butanesulfonylaminopropanoic Acid]"
2,7.10,"CCCCS(=O)(=O)N[C@@H](CNC(=O)CCCCOc1ccc(C(=N)N)cc1)C(=O)O [Example 65, (2S)-3-(5-(4-amidinophenoxy)pentanoylamino)-2-butanesulfonylaminopropanoicAcid]"
3,7.80,"COc1ccc(S(=O)(=O)N[C@@H](CNC(=O)CCCCc2ccc(C(=N)N)cc2)C(=O)O)cc1 [Example 66, (2S)-3-(5-(4-amidinophenyl)pentanoylamino)-2-(4-methoxy)benzenesulfonylaminopropanoic Acid]"
4,7.24,"COc1ccc(S(=O)(=O)N[C@@H](CNC(=O)C2CCCN(C(=O)CCC3CCNCC3)C2)C(=O)O)cc1 (stereo partly drawn) [Example 70, (2S)-2-(4-methoxy)benzenesulfonylamino-3-(1-(3-(4-piperidyl)propanoyl)-3-piperidylcarbonylamino)propanoic Acid]"

# Continued, molecule first:
row,SMILES,pIC50
1,"O=C(CCC1CCNCC1)NCCC(=O)NC[C@H](NS(=O)(=O)c1ccc2ccccc2c1)C(=O)O [Example 43, (2S)-2-(2-naphthalene)sulfonylamino-3-(3-(3-(4-piperidyl)propanoylamino)propanoylamino)propanoic Acid]",6.59
2,"CCS(=O)(=O)N[C@@H](CNC(=O)CCNC(=O)CCC1CCNCC1)C(=O)O [Example 44, (2S)-2-ethanesulfonylamino-3-(3-(3-(4-piperidyl)propanoylamino)propanoylamino)propanoic Acid]",6.58
3,"CCCS(=O)(=O)N[C@@H](CNC(=O)CCNC(=O)CCC1CCNCC1)C(=O)O [Example 45, (2S)-3-(3-(3-(4-piperidyl)propanoylamino)propanoylamino)-2-propanesulfonylaminopropanoic Acid]",6.92
4,"COc1cc(C)c(S(=O)(=O)N[C@@H](CNC(=O)CCNC(=O)CCC2CCNCC2)C(=O)O)c(C)c1C [Example 46, (2S)-2-(4-methoxy-2,3,6-trimethyl)benzenesulfonylamino-3-(3-(3-(4-piperidyl)propanoylamino)propanoylamino)propanoic Acid]",7.49
5,"O=C(CCC1CCNCC1)NCCC(=O)NC[C@H](NS(=O)(=O)c1ccc(OC(F)(F)F)cc1)C(=O)O [Example 47, (2S)-3-(3-(3-(4-piperidyl)propanoylamino)propanoylamino)-2-(4-trifluoromethoxy)benzenesulfonylaminopropanoic Acid]",6.62
6,"CCCCOc1ccc(S(=O)(=O)N[C@@H](CNC(=O)CCNC(=O)CCC2CCNCC2)C(=O)O)cc1 [Example 48, (2S)-2-(4-butoxy)benzenesulfonylamino-3-(3-(3-(4-piperidyl)propanoylamino)propanoylamino)propanoic Acid]",7.17
7,"CCCc1ccc(S(=O)(=O)N[C@@H](CNC(=O)CCNC(=O)CCC2CCNCC2)C(=O)O)cc1 [Example 49, (2S)-3-(3-(3-(4-piperidyl)propanoylamino)propanoylamino)-2-(4-propyl)benzenesulfonylaminopropanoic Acid]",6.77
8,"CC(C)c1ccc(S(=O)(=O)N[C@@H](CNC(=O)CCNC(=O)CCC2CCNCC2)C(=O)O)cc1 [Example 50, (2S)-2-(4-isopropyl)benzenesulfonylamino-3-(3-(3-(4-piperidyl)propanoylamino)propanoylamino)propanoic Acid]",6.69
9,"O=C(CCCC1CCNCC1)NCCC(=O)NC[C@H](NS(=O)(=O)c1ccccc1)C(=O)O [Example 53, (2S)-2-benzenesulfonylamino-3-(3-(4-(4-piperidyl)butanoylamino)propanoylamino)propanoic Acid]",6.95
10,"O=C(CCCC(=O)NC[C@H](NS(=O)(=O)c1ccccc1)C(=O)O)NCC1CCNCC1 [Example 54, (2S)-2-benzenesulfonylamino-3-(4-(4-piperidylmethylcarbamoyl)butanoylamino)propanoic Acid]",7.10
11,"O=C(CCNC(=O)COC1CCNCC1)NC[C@H](NS(=O)(=O)c1ccccc1)C(=O)O [Example 55, (2S)-2-benzenesulfonylamino-3-(3-(2-(4-piperidyloxy)ethanoylamino)propanoylamino)propanoic Acid]",6.52

# Same assay, conditions: Homo sapiens, Table 3, same manner as Example 17
row,pIC50,SMILES
1,7.28,"COc1cccc2c(S(=O)(=O)N[C@@H](CNC(=O)CCNC(=O)CCC3CCNCC3)C(=O)O)cccc12 [Example 72, (2S)-2-(5-methoxy-1-naphthalene)sulfonylamino-3-(3-(3-(4-piperidyl)propanoylamino)propanoylamino)propanoic Acid]"
2,6.79,"N=C(N)c1ccc(C(=O)NCCC(=O)NC[C@@H](NS(=O)(=O)c2ccccc2)C(=O)O)cc1 [Example 73, (2R)-3-(3-(4-amidinobenzoylamino)propanoylamino)-2-benzenesulfonylaminopropanoic Acid]"
3,7.55,"N=C(N)c1ccc(C(=O)NCCC(=O)NC[C@H](NS(=O)(=O)c2ccccc2N)C(=O)O)cc1 [Example 81, (2S)-3-(3-(4-amidinobenzoylamino)propanoylamino)-2-(2-amino)benzenesulfonylaminopropanoic Acid]"
4,7.66,"N=C(N)c1ccc(OCCCC(=O)NC[C@H](NS(=O)(=O)c2ccccc2N)C(=O)O)cc1 [Example 84, (2S)-3-(4-(4-amidinophenoxy)butanoylamino)-2-(2-amino)benzenesulfonylaminopropanoic Acid]"
5,7.36,"N=C(N)c1ccc(CCCCC(=O)NC[C@H](NS(=O)(=O)c2cccc3ccccc23)C(=O)O)cc1 [Example 88, (2S)-3-(5-(4-amidinophenyl)pentanoylamino)-2-(1-naphthalene)sulfonylaminopropanoic Acid]"
6,7.59,"CCc1ccc(S(=O)(=O)N[C@@H](CNC(=O)CCCCc2ccc(C(=N)N)cc2)C(=O)O)cc1 [Example 89, (2S)-3-(5-(4-amidinophenyl)pentanoylamino)-2-(4-ethyl)benzenesulfonylaminopropanoic Acid]"
7,7.82,"N=C(N)c1ccc(CCCCC(=O)NC[C@H](NS(=O)(=O)c2ccccc2C(F)(F)F)C(=O)O)cc1 [Example 90, (2S)-3-(5-(4-amidinophenyl)pentanoylamino)-2-(2-trifluoromethyl)benzenesulfonylaminopropanoic Acid]"
8,7.51,"N=C(N)c1ccc(C(=O)CCCCC(=O)NC[C@H](NS(=O)(=O)c2ccccc2)C(=O)O)cc1 [Example 94, (2S)-3-(5-(4-amidinobenzoyl)pentanoylamino)-2-benzenesulfonylaminopropanoic Acid]"
9,7.24,"CN(CCC(=O)NC[C@H](NS(=O)(=O)c1ccccc1)C(=O)O)C(=O)c1ccc(C(=N)N)cc1 [Example 96, (2S)-3-(3-(4-amidinobenzoylmethylamino)propanoylamino)-2-benzensulfonylaminopropanoic Acid]"
10,7.31,"CCc1ccc(S(=O)(=O)N[C@@H](CNC(=O)CCN(C)C(=O)c2ccc(C(=N)N)cc2)C(=O)O)cc1 [Example 97, (2S)-3-(3-(4-amidinobenzoylmethylamino)propanoylamino)-2-(4-ethyl)benzenesulfonylaminopropanoic Acid]"
11,6.99,"N=C(NN)c1ccc(C(=O)NCCC(=O)NC[C@H](NS(=O)(=O)c2ccccc2)C(=O)O)cc1 [Example 101, (2S)-2-benzenesulfonylamino-3-(3-(4-hydrazinoiminobenzoylamino)propanoylamino)propanoic Acid]"
